Test results from ChEMBL document CHEMBL1142129, “Effect of carbapenem administration on establishment of intestinal colonization by vancomycin-resistant enterococci and Klebsiella pneumoniae in mice” (Antimicrob Agents Chemother, 2007).
≈ marks a conversion by molar mass, not a printed value. Calls of active or inactive are those of the source. No cut-off for these calls is given here.

Columns and labels:
Enterococcus [1] = assay: Overgrowth of enterococci in mouse intestine assessed in stool after 3 days; format: functional, organism-based
Enterococcus [2] = assay: Overgrowth of vancomycin-resistant enterococci growth in mouse intestine assessed in stool 2 days after […] treatment relative to saline; format: functional, organism-based
Enterococcus [3] = assay: Inhibition of growth in Vancomycin-resistant Enterococci C68 by mouse colonization study; format: functional
Bacteroides sp. = assay: Inhibition of intestinal colonization of Bacteroides sp in mouse assessed in stool after 3 days relative to saline; format: functional, organism-based
Enterococcus [4] = assay: Overgrowth of vancomycin-resistant enterococci growth in mouse intestine assessed in stool 2 days after 5 days treatment relative to saline; format: functional, organism-based
Klebsiella pneumoniae [5] = assay: Inhibition of growth in Klebsiella pneumoniae P62 by mouse colonization study; format: functional
Klebsiella pneumoniae [6] = assay: Overgrowth of Klebsiella pneumonia growth in mouse intestine assessed in stool 2 days after 5 day treatment relative to saline; format: functional, organism-based
[7] = Drug level in mouse stool after 3 days; format: ADME, organism-based; settings: read-out: Drug uptake
[8] = Drug level in mouse stool after 5 days; format: ADME, organism-based; settings: read-out: Drug uptake

## CO/N=C(\C(=O)N[C@@H]1C(=O)N2C(C(=O)O)=C(CSc3nc(=O)c(O)nn3C)CS[C@H]12)c1csc(N)n1 [CEFTRIAXONE]
Enterococcus [1]
  Activity: Active
Enterococcus [2]
  Activity: Active
Enterococcus [3]
  MIC: > 10000 µg/mL
Bacteroides sp.
  Activity: Active
Enterococcus [4]
  Activity: Active
Klebsiella pneumoniae [5]
  MIC: 4 µg/mL (≈ 7.21 µM)
Klebsiella pneumoniae [6]
  Activity: Active

## CO/N=C(\C(=O)N[C@@H]1C(=O)N2C(C(=O)O)=C(CSc3nc(=O)c(=O)[nH]n3C)CS[C@H]12)c1csc(N)n1 [CEFTRIAXONE]
[7]
  concentration at 72 h: 93800 ng/g

## C[C@@H](O)[C@H]1C(=O)N2C(C(=O)O)=C(S[C@@H]3CN[C@H](C(=O)Nc4cccc(C(=O)O)c4)C3)[C@H](C)[C@H]12 [ERTAPENEM]
Enterococcus [1]
  Activity: Active
Enterococcus [3]
  MIC: > 1020 µg/mL
Bacteroides sp.
  Activity: Active
Enterococcus [4]
  Activity: inactive
[7]
  concentration at 72 h: < 5000 ng/g
Klebsiella pneumoniae [5]
  MIC: < 0.25 µg/mL
Klebsiella pneumoniae [6]
  Activity: inactive
[8]
  concentration at 120 h: 10500 ng/g
